Species: Rattus norvegicus
Test: DrugMatrix - Regimen: Daily Repeat
Type: toxicity, organism-based, Sprague-Dawley
Design: regimen Daily Repeat, gender Male, age 6-8 weeks
Conditions: in vivo, po, route oral GAVAGE, vehicle .5 % CMC; for ABSOLUTE BASOPHIL / ABSOLUTE EOSINOPHIL / ABSOLUTE LYMPHOCYTE / ABSOLUTE MONOCYTE / ABSOLUTE SEGMENTED NEUTROPHIL / BASOPHIL / EOSINOPHIL / ERYTHROCYTE COUNT / HEMATOCRIT / HEMOGLOBIN / LEUKOCYTE COUNT / LYMPHOCYTE / MEAN CORPUSCULAR HEMOGLOBIN / MEAN CORPUSCULAR HEMOGLOBIN CONCENTRATION / MEAN CORPUSCULAR VOLUME / MONOCYTE / NEUTROPHIL / NUCLEATED RED BLOOD CELLS / PLATELET COUNT: tissue Blood; for ALANINE AMINOTRANSFERASE / ALBUMIN / ASPARTATE AMINOTRANSFERASE / BLOOD UREA NITROGEN / CARBON DIOXIDE / CHLORIDE / CHOLESTEROL / CREATINE PHOSPHOKINASE / CREATININE / GLUCOSE / LACTATE DEHYDROGENASE / LIPASE / POTASSIUM / SODIUM / TOTAL BILIRUBIN / TOTAL PROTEIN / URIC ACID: tissue Plasma
[1] = 47 mg/kg, 72 h, dose level Low, time 3 day
[2] = 47 mg/kg, 120 h, dose level Low, time 5 day
[3] = 500 mg/kg, 72 h, dose level High, time 3 day
[4] = 500 mg/kg, 120 h, dose level High, time 5 day

## OCCOCCN1CCN(C2=Nc3ccccc3Sc3ccccc32)CC1 [QUETIAPINE]
[1]
  ABSOLUTE BASOPHIL: 0 CELLS/uL
  ABSOLUTE EOSINOPHIL: 0 CELLS/uL
  ABSOLUTE LYMPHOCYTE: 7521.33 CELLS/uL
  ABSOLUTE MONOCYTE: 22.33 CELLS/uL
  ABSOLUTE SEGMENTED NEUTROPHIL: 789.67 CELLS/uL
  BASOPHIL: 0%
  EOSINOPHIL: 0%
  ERYTHROCYTE COUNT: 5.57 x10E6/uL
  HEMATOCRIT: 34.3%
  HEMOGLOBIN: 13.87 G/DL
  LEUKOCYTE COUNT: 8.33 x10E3/uL
  LYMPHOCYTE: 90.33%
  MEAN CORPUSCULAR HEMOGLOBIN: 24.93 pg
  MEAN CORPUSCULAR HEMOGLOBIN CONCENTRATION: 40.43 G/DL
  MEAN CORPUSCULAR VOLUME: 61.7 fL
  MONOCYTE: 0.33%
  NEUTROPHIL: 9.33%
  NUCLEATED RED BLOOD CELLS: 0.33 /100WBC
  PLATELET COUNT: 1115.67 x10E3/uL
  ALANINE AMINOTRANSFERASE: 48.33 u/L
  ALBUMIN: 4.63 G/DL
  ASPARTATE AMINOTRANSFERASE: 64.67 u/L
  BLOOD UREA NITROGEN: 15.33 mg/dL
  CARBON DIOXIDE: 31 mmol/L
  CHLORIDE: 101 MEQ/L
  CHOLESTEROL: 78.33 mg/dL
  CREATINE PHOSPHOKINASE: 126.33 u/L
  CREATININE: 0.17 mg/dL
  GLUCOSE: 143.33 mg/dL
  LACTATE DEHYDROGENASE: 116.33 u/L
  LIPASE: 12 u/L
  POTASSIUM: 6.23 MEQ/L
  SODIUM: 148.9 MEQ/L
  TOTAL BILIRUBIN: 0.2 mg/dL
  TOTAL PROTEIN: 6.03 G/DL
  URIC ACID: 1.03 mg/dL
[2]
  ABSOLUTE BASOPHIL: 0 CELLS/uL
  ABSOLUTE EOSINOPHIL: 0 CELLS/uL
  ABSOLUTE LYMPHOCYTE: 13853.67 CELLS/uL
  ABSOLUTE MONOCYTE: 281 CELLS/uL
  ABSOLUTE SEGMENTED NEUTROPHIL: 1032 CELLS/uL
  BASOPHIL: 0%
  EOSINOPHIL: 0%
  ERYTHROCYTE COUNT: 6.08 x10E6/uL
  HEMATOCRIT: 38.03%
  HEMOGLOBIN: 15.07 G/DL
  LEUKOCYTE COUNT: 15.17 x10E3/uL
  LYMPHOCYTE: 91.33%
  MEAN CORPUSCULAR HEMOGLOBIN: 24.83 pg
  MEAN CORPUSCULAR HEMOGLOBIN CONCENTRATION: 39.6 G/DL
  MEAN CORPUSCULAR VOLUME: 62.6 fL
  MONOCYTE: 2%
  NEUTROPHIL: 6.67%
  NUCLEATED RED BLOOD CELLS: 0 /100WBC
  PLATELET COUNT: 1335.33 x10E3/uL
  ALANINE AMINOTRANSFERASE: 39.33 u/L
  ALBUMIN: 4.63 G/DL
  ASPARTATE AMINOTRANSFERASE: 90.67 u/L
  BLOOD UREA NITROGEN: 20 mg/dL
  CARBON DIOXIDE: 25 mmol/L
  CHLORIDE: 96.67 MEQ/L
  CHOLESTEROL: 61.33 mg/dL
  CREATINE PHOSPHOKINASE: 403.67 u/L
  CREATININE: 0.22 mg/dL
  GLUCOSE: 148 mg/dL
  LACTATE DEHYDROGENASE: 287 u/L
  LIPASE: 9.33 u/L
  POTASSIUM: 7.45 MEQ/L
  SODIUM: 142.07 MEQ/L
  TOTAL BILIRUBIN: 0.13 mg/dL
  TOTAL PROTEIN: 6.67 G/DL
  URIC ACID: 2.17 mg/dL
[3]
  ABSOLUTE BASOPHIL: 0 CELLS/uL
  ABSOLUTE EOSINOPHIL: 0 CELLS/uL
  ABSOLUTE LYMPHOCYTE: 9655.67 CELLS/uL
  ABSOLUTE MONOCYTE: 233.67 CELLS/uL
  ABSOLUTE SEGMENTED NEUTROPHIL: 577.33 CELLS/uL
  BASOPHIL: 0%
  EOSINOPHIL: 0%
  ERYTHROCYTE COUNT: 5.61 x10E6/uL
  HEMATOCRIT: 34.93%
  HEMOGLOBIN: 14.17 G/DL
  LEUKOCYTE COUNT: 10.47 x10E3/uL
  LYMPHOCYTE: 92.67%
  MEAN CORPUSCULAR HEMOGLOBIN: 25.27 pg
  MEAN CORPUSCULAR HEMOGLOBIN CONCENTRATION: 40.53 G/DL
  MEAN CORPUSCULAR VOLUME: 62.27 fL
  MONOCYTE: 2%
  NEUTROPHIL: 5.33%
  NUCLEATED RED BLOOD CELLS: 0 /100WBC
  PLATELET COUNT: 1122.67 x10E3/uL
  ALANINE AMINOTRANSFERASE: 50.33 u/L
  ALBUMIN: 4.3 G/DL
  ASPARTATE AMINOTRANSFERASE: 75 u/L
  BLOOD UREA NITROGEN: 16.67 mg/dL
  CARBON DIOXIDE: 26.33 mmol/L
  CHOLESTEROL: 46.67 mg/dL
  CREATINE PHOSPHOKINASE: 448 u/L
  CREATININE: 0.21 mg/dL
  GLUCOSE: 138 mg/dL
  LACTATE DEHYDROGENASE: 232.33 u/L
  LIPASE: 8 u/L
  POTASSIUM: 6.14 MEQ/L
  SODIUM: 143.73 MEQ/L
  TOTAL BILIRUBIN: 0.23 mg/dL
  TOTAL PROTEIN: 5.57 G/DL
  URIC ACID: 1.33 mg/dL
[4]
  ABSOLUTE BASOPHIL: 0 CELLS/uL
  ABSOLUTE EOSINOPHIL: 0 CELLS/uL
  ABSOLUTE LYMPHOCYTE: 15536 CELLS/uL
  ABSOLUTE MONOCYTE: 318.67 CELLS/uL
  ABSOLUTE SEGMENTED NEUTROPHIL: 1612 CELLS/uL
  BASOPHIL: 0%
  EOSINOPHIL: 0%
  ERYTHROCYTE COUNT: 6.23 x10E6/uL
  HEMATOCRIT: 37.83%
  HEMOGLOBIN: 15.17 G/DL
  LEUKOCYTE COUNT: 17.47 x10E3/uL
  LYMPHOCYTE: 89%
  MEAN CORPUSCULAR HEMOGLOBIN: 24.33 pg
  MEAN CORPUSCULAR HEMOGLOBIN CONCENTRATION: 40.1 G/DL
  MEAN CORPUSCULAR VOLUME: 60.67 fL
  MONOCYTE: 1.67%
  NEUTROPHIL: 9.33%
  NUCLEATED RED BLOOD CELLS: 0 /100WBC
  PLATELET COUNT: 1152.33 x10E3/uL
  ALANINE AMINOTRANSFERASE: 50.33 u/L
  ALBUMIN: 4.37 G/DL
  ASPARTATE AMINOTRANSFERASE: 71 u/L
  BLOOD UREA NITROGEN: 20 mg/dL
  CARBON DIOXIDE: 25 mmol/L
  CHLORIDE: 103 MEQ/L
  CHOLESTEROL: 56.67 mg/dL
  CREATINE PHOSPHOKINASE: 184.33 u/L
  CREATININE: 0.29 mg/dL
  GLUCOSE: 154 mg/dL
  LACTATE DEHYDROGENASE: 150.67 u/L
  LIPASE: 8.67 u/L
  POTASSIUM: 6.89 MEQ/L
  SODIUM: 145 MEQ/L
  TOTAL BILIRUBIN: 0.2 mg/dL
  TOTAL PROTEIN: 6.13 G/DL
  URIC ACID: 2.13 mg/dL
